Results on one compound are retold here after BindingDB's records for patent US9815850 (Denali Therapeutics Inc., 2017).

As usually defined, the IC50 is the concentration that inhibits the measured activity by half.

Structures are written as SMILES.

For the test, the target named is T1, Receptor-interacting serine/threonine-protein kinase 1 (Homo sapiens, UniProt Q13546).
T1 sequence (Q13546 whole entry): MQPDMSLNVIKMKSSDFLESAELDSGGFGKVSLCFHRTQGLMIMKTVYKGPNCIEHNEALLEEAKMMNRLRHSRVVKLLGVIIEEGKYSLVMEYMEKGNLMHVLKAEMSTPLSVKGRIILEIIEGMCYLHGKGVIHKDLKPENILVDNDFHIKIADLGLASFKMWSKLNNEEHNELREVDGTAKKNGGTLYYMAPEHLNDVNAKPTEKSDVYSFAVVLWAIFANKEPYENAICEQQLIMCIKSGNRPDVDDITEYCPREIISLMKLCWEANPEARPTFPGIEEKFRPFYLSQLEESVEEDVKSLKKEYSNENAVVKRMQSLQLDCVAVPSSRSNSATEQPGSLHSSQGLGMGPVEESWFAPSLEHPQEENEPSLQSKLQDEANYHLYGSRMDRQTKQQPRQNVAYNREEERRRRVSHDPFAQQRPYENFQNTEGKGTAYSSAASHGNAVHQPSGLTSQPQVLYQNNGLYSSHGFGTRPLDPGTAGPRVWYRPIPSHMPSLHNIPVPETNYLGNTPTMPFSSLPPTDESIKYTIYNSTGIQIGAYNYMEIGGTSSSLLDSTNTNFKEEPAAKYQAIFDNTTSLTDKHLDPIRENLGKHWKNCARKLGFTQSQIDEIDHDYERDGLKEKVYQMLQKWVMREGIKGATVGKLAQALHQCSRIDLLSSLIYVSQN
Nature of the test: Fluorescent Polarization Binding (FP Binding) assay. An excerpt:
For negative control the enzyme addition was replaced by assay buffer only.

In the case of `O=C(N[C@H]1COc2ccccc2-n2cnnc21)c1cc(Cc2ccccc2)[nH]n1` [US9815850, Compound 70A], the IC50 entry was “in the range around 500 nM”.
